# Reference: PMC9977718, “A photoswitchable inhibitor of TREK channels controls pain in wild-type intact freely moving animals” (Nature Communications, 2023)
# Target: T1, TRESK (Mus musculus, UniProt Q6VV64)
# T1 construct: gene Kcnk18
# T1 sequence (Q6VV64 1-394): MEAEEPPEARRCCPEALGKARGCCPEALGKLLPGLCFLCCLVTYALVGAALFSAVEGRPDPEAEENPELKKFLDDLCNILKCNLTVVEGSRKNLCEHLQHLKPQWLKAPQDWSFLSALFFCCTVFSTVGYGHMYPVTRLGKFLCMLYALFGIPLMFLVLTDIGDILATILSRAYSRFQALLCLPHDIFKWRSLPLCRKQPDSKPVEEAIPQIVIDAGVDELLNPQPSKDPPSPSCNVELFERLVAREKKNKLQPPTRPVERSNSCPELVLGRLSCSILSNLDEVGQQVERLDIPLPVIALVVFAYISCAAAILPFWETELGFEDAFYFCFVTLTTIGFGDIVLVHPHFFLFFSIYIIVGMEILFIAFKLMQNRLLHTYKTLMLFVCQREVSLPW
# Assay: whole-cell patch clamp, photoblock of mouse versus human channel
# Assay type: cell-based
smiles,measurement,value
COc1ccccc1C(=O)Nc1cccc(N=Nc2cccc(C)c2)c1 [LAKI],"whole-cell patch clamp, photoblock of mouse versus human channel",LAKI photoblock is conserved among species since TRESK and TRAAK channel inhibitions are similar in mouse and human
